Assay results taken from ChEMBL document CHEMBL1141727, “Isolation and cytotoxic evaluation of marine sponge-derived norterpene peroxides” (J Nat Prod, 1998).

How the values were obtained:
Type in all cases: functional
[1] = system: HL-60(TB); assay: Growth inhibition of human HL-60(TB) cells
[2] = system: MOLT-4; assay: Growth inhibition of human MOLT4 cells
[3] = system: A549; assay: Growth inhibition of human A549 cells
[4] = system: EKVX; assay: Growth inhibition of human EKVX cells
[5] = system: HOP-62; assay: Growth inhibition of human HOP62 cells
[6] = system: HOP-92; assay: Growth inhibition of human HOP92 cells
[7] = system: NCI-H226; assay: Growth inhibition of human NCI-H226 cells
[8] = system: NCI-H23; assay: Growth inhibition of human NCI-H23 cells
[9] = system: NCI-H322M; assay: Growth inhibition of human NCI-H322M cells
[10] = system: NCI-H460; assay: Growth inhibition of human NCI-H460 cells
[11] = system: COLO 205; assay: Growth inhibition of human COLO205 cells
[12] = system: HCC 2998; assay: Growth inhibition of human HCC2998 cells
[13] = system: HCT-116; assay: Growth inhibition of human HCT116 cells
[14] = system: HCT-15; assay: Growth inhibition of human HCT15 cells
[15] = system: HT-29; assay: Growth inhibition of human HT-29 cells
[16] = system: KM12; assay: Growth inhibition of human KM12 cells
[17] = system: SW-620; assay: Growth inhibition of human SW620 cells
[18] = system: SF-268; assay: Growth inhibition of human SF268 cells
[19] = system: SF-295; assay: Growth inhibition of human SF295 cells
[20] = system: SF-539; assay: Growth inhibition of human SF539 cells
[21] = system: SNB-19; assay: Growth inhibition of human SNB19 cells
[22] = system: SNB-75; assay: Growth inhibition of human SNB75 cells
[23] = system: U-251; assay: Growth inhibition of human U251 cells
[24] = system: LOX IMVI; assay: Growth inhibition of human LOXIMVI cells
[25] = system: M14; assay: Growth inhibition of human M14 cells
[26] = system: SK-MEL-2; assay: Growth inhibition of human SK-MEL-2 cells
[27] = system: SK-MEL-28; assay: Growth inhibition of human SK-MEL-28 cells
[28] = system: SK-MEL-5; assay: Growth inhibition of human SK-MEL-5 cells
[29] = system: UACC-257; assay: Growth inhibition of human UACC257 cells
[30] = system: IGROV-1; assay: Growth inhibition of human IGROV1 cells
[31] = system: OVCAR-3; assay: Growth inhibition of human OVCAR-3 cells
[32] = system: OVCAR-4; assay: Growth inhibition of human OVCAR4 cells
[33] = system: OVCAR-5; assay: Growth inhibition of human OVCAR5 cells
[34] = system: OVCAR-8; assay: Growth inhibition of human OVCAR8 cells
[35] = system: SK-OV-3; assay: Growth inhibition of human SKOV3 cells
[36] = system: 786-0; assay: Growth inhibition of human 786-0 cells
[37] = system: A498; assay: Growth inhibition of human A498 cells
[38] = system: ACHN; assay: Growth inhibition of human ACHN cells
[39] = system: CAKI-1; assay: Growth inhibition of human Caki1 cells
[40] = system: RXF 393; assay: Growth inhibition of human […] cells
[41] = system: SN12C; assay: Growth inhibition of human SN12C cells
[42] = system: TK-10; assay: Growth inhibition of human TK10 cells
[43] = system: UO-31; assay: Growth inhibition of human UO31 cells
[44] = system: PC-3; assay: Growth inhibition of human PC3 cells
[45] = system: MCF7; assay: Growth inhibition of human MCF7 cells
[46] = Growth inhibition of human MCF7/ADR resistant cells; conditions: NCI/ADR-RES
[47] = system: MDA-MB-231; assay: Growth inhibition of human MDA-MB-231 cells
[48] = system: MDA-MB-435; assay: Growth inhibition of human MDA-MB-435 cells
[49] = system: MDA-N; assay: Growth inhibition of human MDA-N cells
[50] = system: BT-549; assay: Growth inhibition of human BT549 cells
[51] = system: T47D; assay: Growth inhibition of human T47D cells
[52] = system: L1210; assay: Growth inhibition of mouse L1210 cells assessed as zone units at 50 ug/disk by disk diffusion agar colony formation assay
[53] = system: P388; assay: Growth inhibition of mouse P388 cells assessed as zone units at 50 ug/disk by disk diffusion agar colony formation assay
[54] = system: PO3; assay: Growth inhibition of mouse PO3 cells assessed as zone units at 50 ug/disk by disk diffusion agar colony formation assay
[55] = system: MC-38; assay: Growth inhibition of mouse C38 cells assessed as zone units at 50 ug/disk by disk diffusion agar colony formation assay
[56] = Growth inhibition of mouse M17/ADR cells assessed as zone units at 50 ug/disk by disk diffusion agar colony formation assay
[57] = system: CX-1; assay: Growth inhibition of human CX-1 cells assessed as zone units at 50 ug/disk by disk diffusion agar colony formation assay
[58] = Growth inhibition of human H116 cells assessed as zone units at 50 ug/disk by disk diffusion agar colony formation assay
[59] = system: CCRF-CEM; assay: Growth inhibition of human CCRF-CEM cells
[60] = system: K562; assay: Growth inhibition of human K562 cells
[61] = Growth inhibition of human […] cells
[62] = system: SR; assay: Growth inhibition of human SR cells
[63] = system: NCI-H522; assay: Growth inhibition of human NCI-H522 cells
[64] = system: Malme-3M; assay: Growth inhibition of human MALME-3M cells
[65] = system: UACC-62; assay: Growth inhibition of human UACC62 cells
[66] = system: DU-145; assay: Growth inhibition of human DU145 cells
[67] = Growth inhibition of human H125 cells assessed as zone units at 50 ug/disk by disk diffusion agar colony formation assay

CC1=C(CC/C(C)=C/CC[C@@]2(C)CC[C@H]([C@H](C)C(=O)O)OO2)C(C)(C)CCC1
GI50 [1]: 1.77 µM
GI50 [2]: > 5 µM
GI50 [3]: > 5 µM
GI50 [4]: > 5 µM
GI50 [5]: > 5 µM
GI50 [6]: > 5 µM
GI50 [7]: > 5 µM
GI50 [8]: > 5 µM
GI50 [9]: > 5 µM
GI50 [10]: > 5 µM
GI50 [11]: > 5 µM
GI50 [12]: > 5 µM
GI50 [13]: > 5 µM
GI50 [14]: > 5 µM
GI50 [15]: > 5 µM
GI50 [16]: > 5 µM
GI50 [17]: > 5 µM
GI50 [18]: > 5 µM
GI50 [19]: > 5 µM
GI50 [20]: > 5 µM
GI50 [21]: > 5 µM
GI50 [22]: > 5 µM
GI50 [23]: > 5 µM
GI50 [24]: 2.17 µM
GI50 [25]: > 5 µM
GI50 [26]: > 5 µM
GI50 [27]: 0.43 µM
GI50 [28]: > 5 µM
GI50 [29]: > 5 µM
GI50 [30]: 1.11 µM
GI50 [31]: > 5 µM
GI50 [32]: > 5 µM
GI50 [33]: > 5 µM
GI50 [34]: > 5 µM
GI50 [35]: > 5 µM
GI50 [36]: > 5 µM
GI50 [37]: > 5 µM
GI50 [38]: > 5 µM
GI50 [39]: > 5 µM
GI50 [40]: > 5 µM
GI50 [41]: > 5 µM
GI50 [42]: > 5 µM
GI50 [43]: > 5 µM
GI50 [44]: > 5 µM
GI50 [45]: > 5 µM
GI50 [46]: > 5 µM
GI50 [47]: > 5 µM
GI50 [48]: > 5 µM
GI50 [49]: > 5 µM
GI50 [50]: > 5 µM
GI50 [51]: > 5 µM
Activity [52]: 110 Zone units
Activity [53]: 110 Zone units
Activity [54]: 40 Zone units
Activity [55]: 60 Zone units
Activity [56]: 80 Zone units
Activity [57]: 100 Zone units
Activity [58]: 80 Zone units

C=C1CCCC(C)(C)C1(O)CC/C(C)=C/CC[C@]1(C)CC[C@@H]([C@@H](C)C(=O)OC)OO1 (stereo not given in full) [MUQUBILIN B]
GI50 [59]: > 17.5 µM
GI50 [1]: > 17.5 µM
GI50 [60]: > 17.5 µM
GI50 [2]: > 17.5 µM
GI50 [61]: > 17.5 µM
GI50 [62]: > 17.5 µM
GI50 [3]: > 17.5 µM
GI50 [4]: > 17.5 µM
GI50 [5]: > 17.5 µM
GI50 [6]: > 17.5 µM
GI50 [7]: > 17.5 µM
GI50 [8]: > 17.5 µM
GI50 [9]: > 17.5 µM
GI50 [63]: 12.8 µM
GI50 [11]: > 17.5 µM
GI50 [12]: > 17.5 µM
GI50 [13]: > 17.5 µM
GI50 [14]: > 17.5 µM
GI50 [15]: > 17.5 µM
GI50 [16]: > 17.5 µM
GI50 [17]: > 17.5 µM
GI50 [19]: > 17.5 µM
GI50 [20]: > 17.5 µM
GI50 [21]: > 17.5 µM
GI50 [22]: 15 µM
GI50 [23]: > 17.5 µM
GI50 [24]: 5.22 µM
GI50 [64]: > 17.5 µM
GI50 [25]: > 17.5 µM
GI50 [26]: > 17.5 µM
GI50 [27]: > 17.5 µM
GI50 [28]: > 17.5 µM
GI50 [29]: > 17.5 µM
GI50 [65]: > 17.5 µM
GI50 [30]: 2.42 µM
GI50 [31]: > 17.5 µM
GI50 [32]: > 17.5 µM
GI50 [33]: > 17.5 µM
GI50 [34]: > 17.5 µM
GI50 [35]: > 17.5 µM
GI50 [36]: > 17.5 µM
GI50 [37]: > 17.5 µM
GI50 [38]: > 17.5 µM
GI50 [39]: > 17.5 µM
GI50 [40]: > 17.5 µM
GI50 [42]: > 17.5 µM
GI50 [43]: > 17.5 µM
GI50 [66]: > 17.5 µM
GI50 [45]: > 17.5 µM
GI50 [46]: > 17.5 µM
GI50 [47]: > 17.5 µM
GI50 [48]: > 17.5 µM
Activity [52]: 80 Zone units
Activity [53]: 80 Zone units
Activity [54]: 90 Zone units
Activity [67]: 0 Zone units

C=C1CCC[C@H]2[C@](C)(CC[C@]3(C)CC[C@@H]([C@@H](C)C(=O)O)OO3)[C@@H](C)CC[C@]12C [SIGMOSCEPTRELLIN C]
GI50 [1]: 0.14 µM
GI50 [2]: 0.84 µM
GI50 [3]: 0.94 µM
GI50 [4]: 1.09 µM
GI50 [5]: 1.04 µM
GI50 [6]: 1.08 µM
GI50 [7]: > 5 µM
GI50 [8]: 1 µM
GI50 [9]: 4.19 µM
GI50 [10]: 0.6 µM
GI50 [11]: 0.97 µM
GI50 [12]: 1.03 µM
GI50 [13]: 1.06 µM
GI50 [14]: 1.16 µM
GI50 [15]: 1.03 µM
GI50 [16]: 0.95 µM
GI50 [17]: 1.16 µM
GI50 [18]: 1.04 µM
GI50 [19]: 0.82 µM
GI50 [20]: 1.07 µM
GI50 [21]: > 5 µM
GI50 [22]: 0.83 µM
GI50 [23]: 0.93 µM
GI50 [24]: 0.16 µM
GI50 [25]: > 5 µM
GI50 [26]: > 5 µM
GI50 [27]: 2.37 µM
GI50 [28]: 1.94 µM
GI50 [29]: > 5 µM
GI50 [30]: 0.1 µM
GI50 [31]: 0.99 µM
GI50 [32]: 0.95 µM
GI50 [33]: 2.72 µM
GI50 [34]: 2.53 µM
GI50 [35]: 0.97 µM
GI50 [36]: 0.5 µM
GI50 [37]: 1.59 µM
GI50 [38]: 0.92 µM
GI50 [39]: 0.6 µM
GI50 [40]: 2.95 µM
GI50 [41]: 0.78 µM
GI50 [42]: 1.49 µM
GI50 [43]: 0.9 µM
GI50 [44]: 1.77 µM
GI50 [45]: 3.79 µM
GI50 [46]: 0.77 µM
GI50 [47]: 1.81 µM
GI50 [48]: 2.06 µM
GI50 [49]: 0.91 µM
GI50 [50]: 0.96 µM
GI50 [51]: 0.86 µM
Activity [52]: 220 Zone units
Activity [53]: 220 Zone units
Activity [54]: 190 Zone units
Activity [56]: 220 Zone units
Activity [58]: 230 Zone units
